# The source made the active and inactive calls. The rule behind the calls is not given here.
# Tests used:
# [1] = system: HCT-116; test: Anticancer activity against human HCT-116 cells by MTT assay; type: functional, cell-based
# [2] = system: HepG2; test: Anticancer activity against human HepG2 cells by MTT assay; type: functional, cell-based
# [3] = system: MCF7; test: Anticancer activity against human MCF7 cells by MTT assay; type: functional, cell-based
# [4] = system: WI-38; test: Antiproliferative activity against human WI-38; type: functional, cell-based
# [5] = system: MCF7; test: Antiproliferative activity against human MCF7; type: functional, cell-based
# [6] = system: Klebsiella pneumoniae; test: Antibacterial activity against Klebsiella pneumoniae ATCC 700603; type: functional
# [7] = system: Pseudomonas aeruginosa; test: Antibacterial activity against multidrug resistant Pseudomonas aeruginosa 025; type: functional
# [8] = system: Pseudomonas aeruginosa; test: Antibacterial activity against Pseudomonas aeruginosa ATCC 27853; type: functional
# [9] = system: Pseudomonas aeruginosa; test: Antibacterial activity against multidrug resistant Pseudomonas aeruginosa 034; type: functional
# [10] = system: Escherichia coli; test: Antibacterial activity against Escherichia coli ATCC 25922; type: functional
# [11] = system: Staphylococcus aureus; test: Antibacterial activity against methicillin resistant Staphylococcus aureus ATCC 43300; type: functional
# [12] = system: Staphylococcus aureus; test: Antibacterial activity against Staphylococcus aureus ATCC 29213; type: functional
# [13] = system: Pseudomonas aeruginosa; test: Antibacterial activity against Pseudomonas aeruginosa No.010; type: functional
# [14] = system: HeLa; test: Anticancer activity against human HeLa cells by MTT assay; type: functional, cell-based
# [15] = system: Bacillus subtilis; test: Antibacterial activity against Bacillus subtilis MTCC 441; type: functional
# [16] = system: Klebsiella pneumoniae; test: Antibacterial activity against Klebsiella pneumoniae ATCC 29655; type: functional
# [17] = system: Bacillus pumilus; test: Antibacterial activity against Bacillus pumilus PTCC 1114; type: functional
# [18] = system: Enterococcus faecalis; test: Antibacterial activity against Enterococcus faecalis ATCC 29737; type: functional
# [19] = system: Staphylococcus aureus; test: Antibacterial activity against Staphylococcus aureus MTCC 96; type: functional
# [20] = system: Staphylococcus epidermidis; test: Antibacterial activity against Staphylococcus epidermidis ATCC 12228; type: functional
# [21] = system: Staphylococcus aureus; test: Antibacterial activity against Staphylococcus aureus ATCC 25923; type: functional
# [22] = system: Micrococcus luteus; test: Antibacterial activity against Micrococcus luteus PTCC 1110; type: functional
# [23] = system: Escherichia coli; test: Antibacterial activity against Escherichia coli MTCC 1689; type: functional
# [24] = system: Bacillus subtilis; test: Antibacterial activity against Bacillus subtilis ATCC 465; type: functional
# [25] = system: Proteus mirabilis; test: Antibacterial activity against Proteus mirabilis; type: functional
# [26] = system: Streptococcus mutans; test: Antibacterial activity against Streptococcus mutans PTCC 1601; type: functional
# [27] = system: Ehrlich; test: Cytotoxicity against mouse EAC cells assessed as reduction in cell viability incubated for 2 hrs by trypan blue staining based microscopic analysis; type: functional
# [28] = system: MGC-803; test: Antiproliferative activity against human MGC-803 cells; type: functional, cell-based
# [29] = system: SMMC-7721; test: Antiproliferative activity against human SMMC-7721 cells; type: functional, cell-based
# [30] = system: MCF7; test: Antiproliferative activity against human MCF7 cells by MTT reduction assay; type: functional, cell-based
# [31] = system: ECa-109 cell line; test: Antiproliferative activity against human EC109 cells; type: functional, cell-based
# [32] = system: Pseudomonas aeruginosa; test: Antibacterial activity against Pseudomonas aeruginosa ATCC 85327; type: functional
# [33] = system: Escherichia coli; test: Antimicrobial activity against Escherichia coli ATCC 25922; type: functional
# [34] = system: Bacillus subtilis; test: Antibacterial activity against Bacillus subtilis; type: functional
# [35] = system: Streptococcus pneumoniae; test: Antibacterial activity against Streptococcus pneumoniae incubated for 24 to 48 hrs by agar diffusion well method; type: functional; settings: time 24-48 hrs
# [36] = system: Escherichia coli; test: Antibacterial activity against Escherichia coli incubated for 24 to 48 hrs by agar diffusion well method; type: functional; settings: time 24-48 hrs
# [37] = system: Streptococcus pneumoniae; test: Antibacterial activity against Streptococcus pneumoniae RCMB 010010 incubated for 24 hrs by agar well diffusion method; type: functional
# [38] = system: Bacillus subtilis; test: Antibacterial activity against Bacillus subtilis incubated for 24 to 48 hrs by agar diffusion well method; type: functional; settings: time 24-48 hrs
# [39] = system: Bacillus subtilis; test: Antibacterial activity against Bacillus subtilis RCMB 010067 incubated for 24 hrs by agar well diffusion method; type: functional
# [40] = system: Pseudomonas aeruginosa; test: Antibacterial activity against Pseudomonas aeruginosa incubated for 24 to 48 hrs by agar diffusion well method; type: functional; settings: time 24-48 hrs
# [41] = system: MCF7; test: cells; type: functional, cell-based; settings: Homo sapiens
# [42] = system: HepG2; test: cells; type: functional, cell-based; settings: Homo sapiens
# [43] = system: Staphylococcus aureus; test: Antibacterial activity against Staphylococcus aureus assessed as zone of inhibition; type: functional; also: test concentration or dose not given here
# [44] = system: Escherichia coli; test: Antibacterial activity against Escherichia coli assessed as zone of inhibition; type: functional; also: test concentration or dose not given here
# [45] = system: Pseudomonas aeruginosa; test: Antibacterial activity against Pseudomonas aeruginosa by disc diffusion method; type: functional
# [46] = system: Staphylococcus aureus; test: Antibacterial activity against Staphylococcus aureus by disc diffusion method; type: functional
# [47] = system: Escherichia coli; test: Antibacterial activity against Escherichia coli NCIM 2688 measured after 8 hrs; type: functional
# [48] = system: Bacillus subtilis; test: Antibacterial activity against Bacillus subtilis by disc diffusion method; type: functional
# [49] = system: Pseudomonas aeruginosa; test: Antibacterial activity against Pseudomonas aeruginosa NCIM […] measured after 8 hrs; type: functional
# [50] = system: Staphylococcus aureus; test: Antibacterial activity against Staphylococcus aureus NCIM 2010 measured after 12 hrs; type: functional
# [51] = system: Escherichia coli; test: Antibacterial activity against Escherichia coli by disc diffusion method; type: functional
# [52] = system: Pseudomonas aeruginosa; test: Antibacterial activity against Pseudomonas aeruginosa RCMB 010043 incubated for 24 hrs by agar well diffusion method; type: functional
# [53] = system: Bacillus subtilis; test: Antibacterial activity against Bacillus subtilis NCIM 2079 measured after 12 hrs; type: functional
# [54] = system: Escherichia coli; test: Antibacterial activity against Escherichia coli RCMB 01100052 incubated for 24 hrs by agar well diffusion method; type: functional
# [55] = system: HeLa; test: Anticancer activity against human HeLa cells measured after 48 hrs by MTT assay; type: functional, cell-based
# [56] = system: Leishmania major; test: Antileishmanial activity against Leishmania major promastigotes incubated for 72 hrs by micrscopic analysis; type: functional
# [57] = system: NIH3T3; test: Anticancer activity against mouse 3T3 cells measured after 48 hrs by MTT assay; type: functional, cell-based; settings: NIH3T3, 48 h
# [58] = system: K562; test: Antiproliferative activity against human K562 cells by MTT reduction assay; type: functional, cell-based
molecule,measurement,setting,value
CN1C[C@H](c2ccc(Cl)cc2Cl)[C@@H](C(=O)c2cc3ccccc3[nH]2)C12C(=O)Nc1ccccc12 (stereo partly drawn),IC50,[1],< 1 µM
same,IC50,[2],> 50 µM
same,IC50,[3],15 µM
CN1C(=O)C2(SC[C@@H](C(=O)O)[C@@H]2C(=O)c2ccc(Cl)c(Cl)c2)c2ccccc21 (stereo partly drawn),IC50,[4],55.1 µM
same,IC50,[5],36.3 µM
COc1ccc(C2C3CCCN3C3(C(=O)Nc4ccccc43)C2C(=O)c2ccco2)cc1 (stereo not drawn),MIC,[6],128 µg/mL
same,MIC,[7],16 µg/mL
same,MIC,[8],15 µg/mL
same,MIC,[9],32 µg/mL
same,MIC,[10],128 µg/mL
same,MIC,[11],128 µg/mL
same,MIC,[12],64 µg/mL
same,MIC,[13],16 µg/mL
CN1C[C@@H](c2ccccc2Cl)[C@H](C(=O)c2c(O)c3ccccc3[nH]c2=O)[C@@]12C(=O)Nc1ccccc12,IC50,[14],10.7 µM
CN(C)[C@@H]1C(O)=C(C(N)=O)C(=O)[C@@]2(O)C(O)=C3C(=O)c4c(O)cccc4[C@@](C)(O)[C@H]3C[C@@H]12 [TETRACYCLINE],MIC,[15],10 µg/mL
same,MIC,[16],16 µg/mL
same,MIC,[17],8 µg/mL
same,MIC,[18],8 µg/mL
same,MIC,[19],5 µg/mL
same,MIC,[20],< 2 µg/mL
same,MIC,[21],4 µg/mL
same,MIC,[22],4 µg/mL
same,MIC,[23],10 µg/mL
same,MIC,[24],4 µg/mL
same,MIC,[25],15 µg/mL
same,MIC,[26],2 µg/mL
O=c1[nH]cc(F)c(=O)[nH]1 [FLUOROURACIL],ED25,[27],40 microg/cm3
same,IC50,[28],7.6 µM
same,IC50,[29],9.7 µM
same,IC50,[30],78.3 µM
same,IC50,[31],10.6 µM
GENTAMICIN,MIC,[32],8 µg/mL
same,MIC,[33],4 µg/mL
same,MIC,[34],0.125 µg/mL
same,MIC,[35],inactive
same,MIC,[36],1.95 µg/mL
same,MIC,[37],inactive
same,MIC,[38],inactive
same,MIC,[39],inactive
same,MIC,[40],15.6 µg/mL
CCOC(=O)C1=C(C)NC(=S)NC12C(=O)Nc1c(Cl)cc(Cl)cc12 (stereo not drawn),IC50,[41],21.3 µM
same,IC50,[42],28.4 µM
CC1(C)S[C@@H]2[C@H](NC(=O)[C@H](N)c3ccccc3)C(=O)N2[C@H]1C(=O)O [AMPICILLIN],diameter of the inhibition zone (DIZ),[43],6 mm
same,diameter of the inhibition zone (DIZ),[44],6 mm
same,MIC,[45],100 µg/mL
same,MIC,[46],250 µg/mL
same,MIC90,[47],1.46 µg/mL
same,MIC,[48],250 µg/mL
same,MIC90,[49],4.36 µg/mL
same,MIC,[35],0.015 µg/mL
same,MIC,[36],inactive
same,MIC,[38],0.007 µg/mL
same,MIC90,[50],1 µg/mL
same,MIC,[51],100 µg/mL
same,MIC,[52],inactive
same,MIC90,[53],10.3 µg/mL
same,MIC,[40],inactive
same,MIC,[54],inactive
O=C1/C(=C/c2cccc([N+](=O)[O-])c2)CCC[C@]12[C@H]1CCCN1[C@]1(C(=O)Nc3ccccc31)[C@H]2c1cccc([N+](=O)[O-])c1,IC50,[55],4.8 µM
same,MIC,[56],6.8 µM
same,IC50,[57],19.1 µM
O=C1Nc2ccccc2[C@]12N1CSC[C@H]1[C@H](c1ccc(Br)cc1)[C@]21CCC/C(=C\c2ccc(Br)cc2)C1=O,IC50,[58],14.7 µM
same,IC50,[30],15.3 µM

# Source: ChEMBL document CHEMBL5226286, “The application of isatin-based multicomponent-reactions in the quest for new bioactive and druglike molecules” (Eur J Med Chem, 2021)
